Test results taken from patent publication US11565998B2, “Succinate prodrug, compositions containing the succinate prodrug and uses thereof” (ABLIVA AB, priority 2019, dated 2023).

Tested on: rotenone-mediated inhibition of complex 1
Test: Pig model of rotenone induced mitochondrial complex 1 dysfunction
Format: in vivo, Yorkshire landrace hybrid pigs
Conditions: rotenone infusion 7.1 mg/hr for 1.5 hours, below quantification
Method: To study the effect of rotenone-mediated inhibition of complex 1, Yorkshire landrace hybrid pigs were anaesthetised and implanted with venous catheters for simultaneous infusion of rotenone and Compound 1 or vehicle (PBS). Rotenone (7.1 mg/hr) was infused during 1.5 hours. Compound 1 was infused at a constant rate of 2 mg/kg/min over a period of 2.5 hours. The control animal was infused with PBS. Blood samples were taken with 30 min intervals and plasma was separated by centrifugation. Microdialysates were collected by inserting a microdialysis probe into the striatum of the brain and analysed for lactate using an ISCUS instrument (MDialysis). At the end of infusion, the animal was euthanised and terminal blood and organ samples were collected. Plasma and tissue samples were stored frozen and later analysed for succinate in an LC/MS method using a Thermo Vanquish UPLC+Thermo Quantis triple quadrupole MS instrument, an Acquity UPLC HSS C18 (100×2.1 mm, 1.8 μm) column with guard filter and gradient elution; A=0.1% Formic acid, B=Acetonitrile. [13C]-labelled succinate was used as internal standard. Lactate data were expressed as percentage of the baseline value obtained before start of rotenone infusion.

Structure (SMILES): C=C(C)[C@H]1Cc2c(ccc3c2O[C@@H]2COc4cc(OC)c(OC)cc4[C@@H]2C3=O)O1 [Rotenone]
- tissue concentrations of succinate: < 2 µM
